Measured values: patent US10524455B2, “Methods and compositions for inducing hygienic behavior in honey bees” (University of North Carolina at Greensboro, priority 2015, dated 2020)

Legend:
[1] = tested on: honey bees (MH and control colonies); test: Induced hygienic behavior study with synthesized P32 applied to cell caps by syringe; assay type: in vivo, honey bee; details: results discarded by the patent for methodological issues
Protocol: Methods: The pure P32 compound will be aliquoted and diluted in hexane. 1 ul of different dilutions will be applied onto larvae and/or caps of individual brood cells in three experimental hives. The VSH, MH, and control genotype (together, hereinafter, referred to as “line”) will be tested for their response. Hives from each source will be set up in an experimental apiary and standardized in size, brood, and resources. Brood frames containing uncapped 5th larval instars will be collected from each hive, and the location of the uncapped cells will be marked using a plastic transparency. Frames will be replaced into the hives, and cells that are capped within the next 16 hours will be recorded and used for the experiment. At day 4 post-capping, cells will be treated with hexane (a negative control) or one of the following dilutions of pure P32: 10^−1, 10^−3, 10^−5, 10^−7, 10^−9, 10^−11. Pin-killed brood will be used as a positive control. Twenty cells will receive each treatment in each colony for a total sample size of 1440 (20 cells×8 treatments×3 replicate hives×3 genotypes). Treatments will be randomly distributed across experimental combs and the location of each treatment recorded on a clear transparent sheet put over the comb. […] A new method for application of chemicals by airbrushing was also utilized to increase speed and quantity in chemical application (FIG. 12).

[2] = tested on: honey bees (single VSH colony); test: Induced hygienic behavior study with synthesized P32 applied to cell caps by airbrushing; assay type: in vivo, honey bee; details: for removal of pupae in treated brood cells compared to all control brood cells: roughly 10 ul per cell by airbrushing, 24 hours, controls: (Z)-16-dotriacontene at any concentration, hexane, no treatment; for dose dependence of removal: concentrations 1%, 0.3%, 0.1% by airbrushing
Protocol: Methods: The dose dependent removal effects of (Z)-10-tritriacontene and (Z)-16-dotriacontene applied to wax caps of honey bee brood cells were measured repeatedly in a single VSH colony. (Z)-10-tritriacontene, along with (Z)-16-dotriacontene and hexane controls were applied to capped honey bee brood cells using a Paasche H-100D Single Action Airbrush & Compressor system, operating at 25 PSI. To control the amount of brood cells exposed to each chemical treatment (and thus the dose per cell) 3″ diameter PVC pipe pieces were inserted into a brood frames containing capped pupae. Thus, for each treatment and replicate, 2 mL of solution was applied to a single 3″-diameter section of brood comb by airbrushing. Since there are roughly 200 cells per 3″ diameter circle, this is roughly 10 ul solution per cell. Concentrations of 1%, 0.3%, and 0.1% (Z)-10-tritriacontene and (Z)-16-dotriacontene were tested. Sample sizes for (Z)-10-tritriacontene were 532, 420, and 282 cells for concentrations of 1%, 0.3%, and 0.1%, respectively. Sample sizes for (Z)-16-dotriacontene were 289, 296, and 311 for concentrations of 1%, 0.3%, and 0.1%, respectively. Sample sizes for the hexane control and no treatment control were 425 and 154, respectively. The location of all assays on frames was randomized. The frequency of uncapping and removal was recorded at four hours and twenty-four hours post treatment. Chi-square analysis with Bonferroni correction was used to compare hygienic removal and uncapping between treatments.

Compound: CCCCCCCCC/C=C\CCCCCCCCCCCCCCCCCCCCCC [(Z)-10-tritriacontene]
- removal of treated cells compared to hexane treated cells ([1]; MH colonies (both tested)): significantly higher removal
- removal of treated cells compared to hexane treated cells ([1]; control colonies): no significant difference
- removal of pupae in treated brood cells compared to all control brood cells ([2]; 0.3% in hexane): significantly greater
- removal of pupae in treated brood cells compared to all control brood cells ([2]; 1% in hexane): significantly greater
- dose dependence of removal [2]: removed in a dose-dependent manner

Compound: CCCCCCCCCCCCCCC/C=C\CCCCCCCCCCCCCCC [(Z)-16-dotriacontene, reference compound]
- dose dependence of removal [2]: removed in a dose-dependent manner
